Assays:
Type in all cases: cell-based
SW620 = test: Antiproliferative activity in human colon tumor cell line SW620; settings: PROTOCOL 1 and PROTOCOL 2
Description: (§1) PROTOCOL 1, 2, and 3 are described in greater detail hereinbelow. In general, according to PROTOCOLS 1 and 2, the target ABAE and/or Human Tumor cells are exposed to the compound of Formula I for 48 hours. PROTOCOL 3 exposes ABAE cell to the compound for 4 days. A detailed description of the protocol is as follows:
(§2) Antiproliferative Activity in Human Tumor and Adult Bovine Aortic Endothelial (ABAE) Cell Lines
(§3) The antiproliferative activity of the compounds of Formula I of the present invention is evaluated in a panel comprised of human tumor cell lines and an adult bovine aortic endothelial cell line (ABAE). The human tumor cell lines are from:
(§4) 2) Colon tumors: MIP, CaCo2, and SW620.
(§5) All cell lines are maintained in log phase in RPMI 1640 media, supplemented with 5% fetal calf serum, penicillin/streptomycin and 2 mM L-glutamine. Cultures are renewed after 20 passages with cells from a fresh stock of batch-frozen early passage cells. Cell lines are routinely checked for mycoplasma contamination (Genprobe). In a laminar flow hood, cells (1-5×10^4) are plated into 96-well microtiter plates in a volume of 0.1 ml/well with a bulk microtiter dispenser (Denley). […] At this concentration, dimethylsulfoxide has no effect on cell growth. Compounds are added using a Tomtec dispenser which simultaneously dispenses from one 96-well plate, containing the drug dilutions, to the plates containing the cells. After two days of continuous drug exposure, 50% cold trichloroacetic acid (TCA) is added to 10% final concentration to fix the cells, and after 60 minutes at 4° C., the TCA is aspirated and the plates are washed 5 times with deionized water using a microtiter plate washer. The number of cells on the plate are quantitated using a protein dye-binding assay (Monks et al., 1991). A 0.4% solution of the dye, sulforhodamine B, in glacial acetic acid is added to the plates, and the plates are washed 5 times with 1% glacial acetic acid using the automatic plate washed. The bound stain is solubilized with 0.1 ml of 10 mM Tris base. The optical densities are read from an automatic spectrophotometric plate reader (Dynatech) directly to a main frame computer (VAX 8600).
(§6) Positive controls, that include standard chemotherapeutic drugs (i.e., adriamycin, cisplatin, etc.), are included in every experiment.
(§7) Background optical density measurements (complete media-cells, and complete media+drug-cells) are automatically subtracted from the appropriate control and test wells. Mean values and standard errors are determined from duplicate wells. A measure is also made of the optical density at time when the drugs are added. The number of cells after treatment (P), as % of control, is calculated for every concentration of drug, as follows: [formula] wherein: T is optical density measurement for treated cells after 48 hours;
(§8) C is optical density measurement for untreated cells after 48 hours;
(§9) Co is optical density measurement for cells at the time of drug addition.
(§10) IC50 of growth inhibition is calculated from the sets of P values using the RS-1 data package (BBN Software).
(§11) The antiproliferative activity of the compounds of Formula I is evaluated in a panel comprised of human tumor cell lines and an adult bovine aortic endothelial cell line (ABAE) as listed in PROTOCOL 1. This assay is a modification of PROTOCOL 1. The modifications include:
(§12) 1) each concentration for each compound is tested in a single well;
(§13) 2) compounds are tested at 20, 4, 0.8, 0.16 microgram/ml and additionally in some experiments at 100 and 0.32 microgram/ml;
(§14) 3) samples are pipetted into a 96-well plate for each of the cell lines by a Beckman Biomek 1000 SL robot;
(§15) 4) after fixing with TCA each well is washed with 0.35 ml distilled water twice, not five times;
(§16) 5) after staining with sulforhodamine B each well is washed 3 times, not five times; […]

Human Tumor Cell lines = test: Antiproliferative activity in panel of human tumor cell lines; settings: for AVERAGE IC50 FOR TUMOR CELL LINES: average over the tested human tumor cell lines
Description: as §1, §2, §3, §4, §5, §6, §7, §8, §9, §10, §11, §12, §13, §14, §15, §16

HTB 16 = test: Antiproliferative activity in human tumor cell line HTB 16; settings: ovarian tumor line; PROTOCOL 1 and PROTOCOL 2
Description: as §1, §2, §3, §5, §6, §7, §8, §9, §10, §11, §12, §13, §14, §15, §16

A2780S = test: Antiproliferative activity in human ovarian tumor cell line A2780S; settings: PROTOCOL 1 and PROTOCOL 2
Description: as §1, §2, §3, §5, §6, §7, §8, §9, §10, §11, §12, §13, §14, §15, §16

A2780/DDP = test: Antiproliferative activity in human ovarian tumor cell line A2780/DDP; settings: PROTOCOL 1 and PROTOCOL 2
Description: as §1, §2, §3, §5, §6, §7, §8, §9, §10, §11, §12, §13, §14, §15, §16

CACO2 = test: Antiproliferative activity in human colon tumor cell line CACO2; settings: PROTOCOL 1 and PROTOCOL 2
Description: as §1, §2, §3, §4
All cell lines are maintained in log phase in RPMI 1640 media, supplemented with 5% fetal calf serum, penicillin/streptomycin and 2 mM L-glutamine. […] The number of cells on the plate are quantitated using a protein dye-binding assay (Monks et al., 1991). […] The optical densities are read from an automatic spectrophotometric plate reader (Dynatech) directly to a main frame computer (VAX 8600). […]
Background optical density measurements (complete media-cells, and complete media+drug-cells) are automatically subtracted from the appropriate control and test wells. Mean values and standard errors are determined from duplicate wells. […]

MIP = test: Antiproliferative activity in human colon tumor cell line MIP; settings: PROTOCOL 1 and PROTOCOL 2
Description: as §1, §2, §3, §4, §5, §6, §7, §8, §9, §10, §11, §12, §13, §14, §15, §16

[1] = tested on: Adult Bovine Aortic Endothelial (ABAE) cell line; test: Antiproliferative activity in ABAE cells, PROTOCOL 3 (4 days, cell count); settings: PROTOCOL 3, FIG. 1
Description: as §1
Antiproliferative Activity in Adult Bovine Aortic Endothelial (ABAE) Cell Line
ABAE cells are grown in DMEM media (Mediatech, Washington, D.C.) supplemented with 10% calf serum (Hyclone). ABAE cells are plated in 24-well dishes at 8,000 cells/well, followed by the addition of increasing concentrations of 7-[substituted amino]-9-[(substituted glycyl)amido]-6-demethyl-6-deoxytetracyclines. After four days, the cells are detached and counted. […] The growth inhibition (I) as % of control is calculated as follows: [formula] wherein: Nc is the number of cells in untreated wells;
Nt is the number of cells in treated wells;
No is the number of plated cells.
IC50 of growth inhibition is determined from the sets of I values plotted by Kaleidograph software (Abelbeck Software).
In addition FIG. 1, presents the dose response curve of the compound of Example 6 for the above ABAE cell line obtained by PROTOCOL 3.

[2] = tested on: Adult Bovine Aortic Endothelial (ABAE) cell line; test: Antiproliferative activity in ABAE cells, PROTOCOL 2 (48 h, SRB, single well)
Description: as §1, §2, §11, §12, §13, §14, §15
5) after staining with sulforhodamine B each well is washed 3 times, not five times;
6) the growth inhibition (I) as % of control, is calculated using the RS-1 data package (BBN Software), for every concentration of drug, as follows: [formula] wherein: T is optical density measurement for treated cells after 48 hours;
as §8
7) IC50 of growth inhibition is determined from graphically from dose response curves, as is known in the art.
Table 1 presents the results depicting the antiproliferative activity of the compounds of Formula I against an Adult Bovine Aortic Endothelial (ABAE) cell line, as evaluated by PROTOCOL 1 and PROTOCOL 2. The results are presented in terms of IC50 and are as follows.

Row | Compound | SW620 IC50 (SW620) [µg/mL] | inhibition of cell growth at the highest concentrations (Human Tumor Cell lines; FIG. 2, 6 human tumor cell lines, highest concentrations) [%] | AVERAGE IC50 FOR TUMOR CELL LINES (Human Tumor Cell lines) [µg/mL] | Dead floating cells (Human Tumor Cell lines; even at the highest concentration) | HTB 16 IC50 (HTB 16) [µg/mL] | A2780S IC50 (A2780S) [µg/mL] | A2780/DDP IC50 (A2780/DDP) [µg/mL] | CACO2 IC50 (CACO2) [µg/mL] | MIP IC50 (MIP) [µg/mL] | inhibits 50% of cell growth [1] | IC50 PROTOCOL 2 ([2]; ABAE cells, 48 h, PROTOCOL 2) [µg/mL] | activity in preventing proliferation of ABAE cells compared to Minocycline ([2]; Table 1)
1 | C=CCN(CC=C)CC(=O)Nc1ccc2c(c1O)C(=O)C1=C(O)[C@]3(O)C(=O)C(C(N)=O)=C(O)[C@@H](N(C)C)C3CC1C2.Cl.Cl (stereo partly drawn) [Example 2] | 1.5 | < 100 | 2.75 | not observed | 1.5 | 1.5 | 4.0 | 4.0 | 4.0 |  |  | 
2 | CCCCNCC(=O)Nc1ccc2c(c1O)C(=O)C1=C(O)[C@]3(O)C(=O)C(C(N)=O)=C(O)[C@@H](N(C)C)C3CC1C2.Cl (stereo partly drawn) [Example 6, [4S-(4alpha,12aalpha)]-9-[[(Butylamino)acetyl]amino]-4-(dimethylamino)-1,4,4a,5,5a,6,11,12a-octahydro-3,10,12,12a-tetrahydroxy-1,11-dioxo-2-naphthacenecarboxamide monohydrochloride] | 3.2 |  | 3.2 |  | 2.9 | 3.4 | 3.3 |  | 3.4 | approximately 3 μg/ml | 4 | extraordinary activity in preventing the proliferation of ABAE cells as compared to the prior art compound, Minocycline

Source: US5563130A, “Methods for inhibiting angiogenesis, proliferation of endothelial or tumor cells and tumor growth” (American Cyanamid Company, priority 1994, dated 1996)
